# Data from EP4745137A1 (Gluetacs Therapeutics (Shanghai) Co., Ltd., priority 2023, dated 2025).
# Experiments:
# Assay type in all cases: cell-based
# Conditions in all cases: 24 hours of compound treatment, 50 nM and 500 nM tested (concentration behind the class not stated)
# IKZF1 = target: T1, IKZF1 (Homo sapiens, UniProt Q13422+Q96SW2); test: Western-blot assay of substrate protein degradation in hPBMCs, IKZF1
# T1 construct: endogenous in cells; host or cells: hPBMCs (Milecell Biotechnologies)
# IKZF2 = target: T2, IKZF2 (Homo sapiens, UniProt Q96SW2+Q9UKS7); test: Western-blot assay of substrate protein degradation in hPBMCs, IKZF2
# T2 construct: endogenous in cells; host or cells: hPBMCs (Milecell Biotechnologies)
# IKZF3 = target: T3, IKZF3 (Homo sapiens, UniProt Q96SW2+Q9UKT9); test: Western-blot assay of substrate protein degradation in hPBMCs, IKZF3
# T3 construct: endogenous in cells; host or cells: hPBMCs (Milecell Biotechnologies)
# GSPT1 = target: T4, GSPT1 (Homo sapiens, UniProt P15170+Q96SW2); test: Western-blot assay of substrate protein degradation in hPBMCs, GSPT1
# T4 construct: endogenous in cells; host or cells: hPBMCs (Milecell Biotechnologies)
# CK1α = target: T5, CK1α (Homo sapiens, UniProt P48729+Q96SW2); test: Western-blot assay of substrate protein degradation in hPBMCs, CK1α
# T5 construct: endogenous in cells; host or cells: hPBMCs (Milecell Biotechnologies)
# WEE1 = target: T6, WEE1 (Homo sapiens, UniProt P30291+Q96SW2); test: Western-blot assay of substrate protein degradation in hPBMCs, WEE1
# T6 construct: endogenous in cells; host or cells: hPBMCs (Milecell Biotechnologies)
# T6 sequence (P30291 whole entry): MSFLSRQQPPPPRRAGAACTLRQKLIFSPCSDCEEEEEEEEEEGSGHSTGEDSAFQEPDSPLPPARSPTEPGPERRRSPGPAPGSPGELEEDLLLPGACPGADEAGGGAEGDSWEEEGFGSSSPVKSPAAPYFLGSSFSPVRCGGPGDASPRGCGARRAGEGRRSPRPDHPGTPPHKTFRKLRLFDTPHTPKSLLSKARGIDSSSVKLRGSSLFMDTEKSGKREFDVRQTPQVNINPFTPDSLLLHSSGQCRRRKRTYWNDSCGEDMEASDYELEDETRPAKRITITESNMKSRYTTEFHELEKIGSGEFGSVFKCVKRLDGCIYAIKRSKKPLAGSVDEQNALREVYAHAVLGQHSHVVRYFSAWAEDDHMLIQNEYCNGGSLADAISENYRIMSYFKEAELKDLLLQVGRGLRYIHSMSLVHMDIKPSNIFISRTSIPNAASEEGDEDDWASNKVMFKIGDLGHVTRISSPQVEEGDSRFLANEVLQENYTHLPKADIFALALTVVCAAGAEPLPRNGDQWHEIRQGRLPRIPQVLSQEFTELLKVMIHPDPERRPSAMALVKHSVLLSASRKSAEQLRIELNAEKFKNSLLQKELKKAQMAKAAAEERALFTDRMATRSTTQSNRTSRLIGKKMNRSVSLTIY
# T6 sequence (Q96SW2 whole entry): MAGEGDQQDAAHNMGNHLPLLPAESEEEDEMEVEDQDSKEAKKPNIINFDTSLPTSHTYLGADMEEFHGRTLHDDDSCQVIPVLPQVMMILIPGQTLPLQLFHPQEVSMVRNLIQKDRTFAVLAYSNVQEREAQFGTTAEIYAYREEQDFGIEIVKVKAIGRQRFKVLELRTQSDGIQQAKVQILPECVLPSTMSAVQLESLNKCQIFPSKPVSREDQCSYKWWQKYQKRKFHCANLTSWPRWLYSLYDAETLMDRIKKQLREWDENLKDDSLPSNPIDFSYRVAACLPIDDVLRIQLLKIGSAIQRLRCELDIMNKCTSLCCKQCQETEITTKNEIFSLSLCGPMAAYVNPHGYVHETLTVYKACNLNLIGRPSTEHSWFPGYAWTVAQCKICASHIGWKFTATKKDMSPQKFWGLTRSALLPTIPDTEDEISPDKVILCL
# T6 sequence (Q16531 whole entry partner): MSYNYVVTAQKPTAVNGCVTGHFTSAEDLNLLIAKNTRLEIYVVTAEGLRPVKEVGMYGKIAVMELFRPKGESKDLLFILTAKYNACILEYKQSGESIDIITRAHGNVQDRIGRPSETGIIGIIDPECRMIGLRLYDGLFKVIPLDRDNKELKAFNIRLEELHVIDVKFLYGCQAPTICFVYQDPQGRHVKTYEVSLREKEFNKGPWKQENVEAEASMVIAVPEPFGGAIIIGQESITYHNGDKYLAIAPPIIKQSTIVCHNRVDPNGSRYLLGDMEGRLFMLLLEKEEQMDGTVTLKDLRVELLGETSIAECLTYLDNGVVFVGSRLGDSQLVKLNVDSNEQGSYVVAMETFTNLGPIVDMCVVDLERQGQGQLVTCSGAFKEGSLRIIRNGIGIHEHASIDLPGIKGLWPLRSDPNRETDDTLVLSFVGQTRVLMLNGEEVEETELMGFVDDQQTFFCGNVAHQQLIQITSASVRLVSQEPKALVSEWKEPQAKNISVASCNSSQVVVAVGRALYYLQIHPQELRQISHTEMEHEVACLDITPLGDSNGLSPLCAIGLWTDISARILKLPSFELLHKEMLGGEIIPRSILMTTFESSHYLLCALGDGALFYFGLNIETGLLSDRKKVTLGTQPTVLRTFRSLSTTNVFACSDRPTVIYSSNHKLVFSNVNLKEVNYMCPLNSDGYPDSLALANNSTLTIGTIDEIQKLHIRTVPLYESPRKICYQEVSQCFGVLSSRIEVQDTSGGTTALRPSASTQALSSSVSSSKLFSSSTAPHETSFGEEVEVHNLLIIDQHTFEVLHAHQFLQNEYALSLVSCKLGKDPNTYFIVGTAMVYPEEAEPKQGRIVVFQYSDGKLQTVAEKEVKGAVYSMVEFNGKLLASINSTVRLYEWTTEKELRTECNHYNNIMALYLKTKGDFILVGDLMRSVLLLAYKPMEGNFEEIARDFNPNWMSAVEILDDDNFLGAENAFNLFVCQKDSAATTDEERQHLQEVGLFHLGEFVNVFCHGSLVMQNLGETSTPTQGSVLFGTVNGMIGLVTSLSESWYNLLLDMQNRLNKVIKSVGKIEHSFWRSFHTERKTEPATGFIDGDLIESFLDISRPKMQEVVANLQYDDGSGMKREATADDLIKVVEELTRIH
# T3 sequence (Q9UKT9 whole entry): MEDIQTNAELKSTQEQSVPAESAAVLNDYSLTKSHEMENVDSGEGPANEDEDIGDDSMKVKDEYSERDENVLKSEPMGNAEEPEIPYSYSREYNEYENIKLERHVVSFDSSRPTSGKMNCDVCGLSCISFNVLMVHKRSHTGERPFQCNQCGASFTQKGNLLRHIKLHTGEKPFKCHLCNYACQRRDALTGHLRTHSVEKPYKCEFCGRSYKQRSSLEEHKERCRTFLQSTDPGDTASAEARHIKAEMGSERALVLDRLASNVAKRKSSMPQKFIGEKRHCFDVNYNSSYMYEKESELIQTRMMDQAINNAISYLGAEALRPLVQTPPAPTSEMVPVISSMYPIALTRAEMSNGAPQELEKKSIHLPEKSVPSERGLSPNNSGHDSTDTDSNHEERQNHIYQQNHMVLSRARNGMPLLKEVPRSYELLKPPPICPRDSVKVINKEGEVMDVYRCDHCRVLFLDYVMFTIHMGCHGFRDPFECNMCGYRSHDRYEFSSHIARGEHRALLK
# T3 sequence (Q96SW2 whole entry): as the sequence (Q96SW2 whole entry) above
# T3 sequence (Q16531 whole entry partner): as the sequence (Q16531 whole entry partner) above
# T5 sequence (P48729 whole entry): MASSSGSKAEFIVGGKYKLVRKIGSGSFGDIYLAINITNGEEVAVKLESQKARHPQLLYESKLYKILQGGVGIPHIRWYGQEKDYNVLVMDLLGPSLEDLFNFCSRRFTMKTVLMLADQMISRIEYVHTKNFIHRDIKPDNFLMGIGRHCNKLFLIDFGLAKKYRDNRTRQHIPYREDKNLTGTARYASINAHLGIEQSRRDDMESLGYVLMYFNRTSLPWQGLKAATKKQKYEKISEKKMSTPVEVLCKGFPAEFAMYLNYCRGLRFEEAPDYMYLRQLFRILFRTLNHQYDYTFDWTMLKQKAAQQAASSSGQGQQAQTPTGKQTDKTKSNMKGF
# T5 sequence (Q96SW2 whole entry): as the sequence (Q96SW2 whole entry) above
# T5 sequence (Q16531 whole entry partner): as the sequence (Q16531 whole entry partner) above
# T2 sequence (Q9UKS7 whole entry): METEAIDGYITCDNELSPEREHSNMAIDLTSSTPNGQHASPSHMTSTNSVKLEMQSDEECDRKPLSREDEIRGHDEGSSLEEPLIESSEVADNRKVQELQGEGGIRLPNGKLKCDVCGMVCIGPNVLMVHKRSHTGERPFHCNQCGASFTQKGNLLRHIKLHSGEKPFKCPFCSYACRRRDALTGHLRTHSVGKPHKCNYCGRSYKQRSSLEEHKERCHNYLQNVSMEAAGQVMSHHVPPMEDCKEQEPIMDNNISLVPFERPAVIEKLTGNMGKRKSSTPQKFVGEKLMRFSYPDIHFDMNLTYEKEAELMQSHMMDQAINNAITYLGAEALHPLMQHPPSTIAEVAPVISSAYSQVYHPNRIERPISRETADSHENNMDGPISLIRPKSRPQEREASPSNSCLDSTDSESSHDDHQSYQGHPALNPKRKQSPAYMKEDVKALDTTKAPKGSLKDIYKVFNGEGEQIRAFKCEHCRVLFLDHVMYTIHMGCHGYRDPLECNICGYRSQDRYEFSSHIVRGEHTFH
# T2 sequence (Q96SW2 whole entry): as the sequence (Q96SW2 whole entry) above
# T2 sequence (Q16531 whole entry partner): as the sequence (Q16531 whole entry partner) above
# T4 sequence (P15170 whole entry): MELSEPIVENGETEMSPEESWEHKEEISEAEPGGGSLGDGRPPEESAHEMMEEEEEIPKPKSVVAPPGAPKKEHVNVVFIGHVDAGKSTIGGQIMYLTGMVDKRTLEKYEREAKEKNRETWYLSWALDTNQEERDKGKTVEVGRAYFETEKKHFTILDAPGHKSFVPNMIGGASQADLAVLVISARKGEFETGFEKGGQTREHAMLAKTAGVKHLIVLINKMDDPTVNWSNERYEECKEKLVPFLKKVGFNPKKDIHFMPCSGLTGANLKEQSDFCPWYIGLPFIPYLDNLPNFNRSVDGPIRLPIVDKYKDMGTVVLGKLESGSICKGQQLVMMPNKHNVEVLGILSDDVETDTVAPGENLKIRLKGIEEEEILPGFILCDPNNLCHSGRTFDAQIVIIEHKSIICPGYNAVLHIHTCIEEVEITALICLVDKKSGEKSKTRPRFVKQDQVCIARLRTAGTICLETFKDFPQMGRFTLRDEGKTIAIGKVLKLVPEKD
# T4 sequence (Q96SW2 whole entry): as the sequence (Q96SW2 whole entry) above
# T4 sequence (Q16531 whole entry partner): as the sequence (Q16531 whole entry partner) above
Structure (SMILES),IKZF 1 substrate protein remaining % (IKZF1),IKZF2 substrate protein remaining % (IKZF2),IKZF3 substrate protein remaining % (IKZF3),GSPT1 substrate protein remaining % (GSPT1),CK1a substrate protein remaining % (CK1α),Weel substrate protein remaining % (WEE1)
"Cc1ccc(Cl)cc1N1CCN(Cc2ccc3c(c2)C(=O)N(C2CCC(=O)NC2=O)C3=O)CC1 (stereo not drawn) [GT-06367, 5-((4-(5-chloro-2-methylphenyl)piperazin-1-yl)methyl)-2-(2,6-dioxopiperidin-3-yl)isoindoline-1,3-dione]",B (80%< substrate protein remaining %≤ 100%),A (0% ≤ substrate protein remaining % ≤ 80%),A (0% ≤ substrate protein remaining % ≤ 80%),A (0% ≤ substrate protein remaining % ≤ 80%),B (80%< substrate protein remaining %≤ 100%),A (0% ≤ substrate protein remaining % ≤ 80%)
"O=C1CCC(N2C(=O)c3ccc(CN4CCC(c5ccccc5)CC4)cc3C2=O)C(=O)N1 (stereo not drawn) [GT-06368, 2-(2,6-dioxopiperidin-3-yl)-5-((4-phenylpiperidin-1-yl)methyl)isoindoline-1,3-dione]",B (80%< substrate protein remaining %≤ 100%),A (0% ≤ substrate protein remaining % ≤ 80%),A (0% ≤ substrate protein remaining % ≤ 80%),A (0% ≤ substrate protein remaining % ≤ 80%),A (0% ≤ substrate protein remaining % ≤ 80%),A (0% ≤ substrate protein remaining % ≤ 80%)
"O=C1CCC(N2C(=O)c3ccc(CN4CCC(c5cccc(Br)c5)CC4)cc3C2=O)C(=O)N1 (stereo not drawn) [GT-06369, 5-((4-(3-bromophenyl)piperidin-1-yl)methyl)-2-(2,6-dioxopiperidin-3-yl)isoindoline-1,3-dione]",A (0% ≤ substrate protein remaining % ≤ 80%),A (0% ≤ substrate protein remaining % ≤ 80%),A (0% ≤ substrate protein remaining % ≤ 80%),A (0% ≤ substrate protein remaining % ≤ 80%),A (0% ≤ substrate protein remaining % ≤ 80%),A (0% ≤ substrate protein remaining % ≤ 80%)
"O=C1CCC(N2C(=O)c3ccc(CN4CCC(c5ccc(Br)cc5)CC4)cc3C2=O)C(=O)N1 (stereo not drawn) [GT-06370, 5-((4-(4-bromophenyl)piperidin-1-yl)methyl)-2-(2,6-dioxopiperidin-3-yl)isoindoline-1,3-dione]",B (80%< substrate protein remaining %≤ 100%),A (0% ≤ substrate protein remaining % ≤ 80%),A (0% ≤ substrate protein remaining % ≤ 80%),A (0% ≤ substrate protein remaining % ≤ 80%),A (0% ≤ substrate protein remaining % ≤ 80%),A (0% ≤ substrate protein remaining % ≤ 80%)
"O=C1CCC(N2C(=O)c3ccc(CN4CCC(c5ccccc5Cl)CC4)cc3C2=O)C(=O)N1 (stereo not drawn) [GT-06371, 5-((4-(2-chlorophenyl)piperidin-1-yl)methyl)-2-(2,6-dioxopiperidin-3-yl)isoindoline-1,3-dione]",A (0% ≤ substrate protein remaining % ≤ 80%),B (80%< substrate protein remaining %≤ 100%),B (80%< substrate protein remaining %≤ 100%),A (0% ≤ substrate protein remaining % ≤ 80%),B (80%< substrate protein remaining %≤ 100%),B (80%< substrate protein remaining %≤ 100%)
"O=C1CCC(N2C(=O)c3ccc(CN4CCC(c5ccc(Cl)cc5)CC4)cc3C2=O)C(=O)N1 (stereo not drawn) [GT-06372, 5-((4-(4-chlorophenyl)piperidin-1-yl)methyl)-2-(2,6-dioxopiperidin-3-yl)isoindoline-1,3-dione]",A (0% ≤ substrate protein remaining % ≤ 80%),A (0% ≤ substrate protein remaining % ≤ 80%),B (80%< substrate protein remaining %≤ 100%),A (0% ≤ substrate protein remaining % ≤ 80%),B (80%< substrate protein remaining %≤ 100%),A (0% ≤ substrate protein remaining % ≤ 80%)
"O=C1CCC(N2C(=O)c3ccc(CN4CCC(c5ccccc5F)CC4)cc3C2=O)C(=O)N1 (stereo not drawn) [GT-06373, 2-(2,6-dioxopiperidin-3-yl)-5-((4-(2-fluorophenyl)piperidin-1-yl)methyl)isoindoline-1,3-dione]",A (0% ≤ substrate protein remaining % ≤ 80%),A (0% ≤ substrate protein remaining % ≤ 80%),B (80%< substrate protein remaining %≤ 100%),A (0% ≤ substrate protein remaining % ≤ 80%),B (80%< substrate protein remaining %≤ 100%),A (0% ≤ substrate protein remaining % ≤ 80%)
"O=C1CCC(N2C(=O)c3ccc(CN4CCC(c5ccc(F)cc5)CC4)cc3C2=O)C(=O)N1 (stereo not drawn) [GT-06374, 2-(2,6-dioxopiperidin-3-yl)-5-((4-(4-fluorophenyl)piperidin-1-yl)methyl)isoindoline-1,3-dione]",A (0% ≤ substrate protein remaining % ≤ 80%),A (0% ≤ substrate protein remaining % ≤ 80%),B (80%< substrate protein remaining %≤ 100%),A (0% ≤ substrate protein remaining % ≤ 80%),B (80%< substrate protein remaining %≤ 100%),A (0% ≤ substrate protein remaining % ≤ 80%)
"O=C1CCC(N2C(=O)c3ccc(CN4CCC(c5ccccc5C(F)(F)F)CC4)cc3C2=O)C(=O)N1 (stereo not drawn) [GT-06375, 2-(2,6-dioxopiperidin-3-yl)-5-((4-(2-(trifluoromethyl)phenyl)piperidin-1-yl)methyl)isoindoline-1,3-dione]",A (0% ≤ substrate protein remaining % ≤ 80%),A (0% ≤ substrate protein remaining % ≤ 80%),B (80%< substrate protein remaining %≤ 100%),A (0% ≤ substrate protein remaining % ≤ 80%),B (80%< substrate protein remaining %≤ 100%),A (0% ≤ substrate protein remaining % ≤ 80%)
"O=C1CCC(N2C(=O)c3ccc(CN4CC=C(c5cccc(F)c5Cl)CC4)cc3C2=O)C(=O)N1 (stereo not drawn) [GT-06429, 5-((4-(2-chloro-3-fluorophenyl)-3,6-dihydropyridin-1(2H)-yl)methyl)-2-(2,6-dioxopiperidin-3-yl)isoindoline-1,3-dione]",A (0% ≤ substrate protein remaining % ≤ 80%),A (0% ≤ substrate protein remaining % ≤ 80%),A (0% ≤ substrate protein remaining % ≤ 80%),A (0% ≤ substrate protein remaining % ≤ 80%),A (0% ≤ substrate protein remaining % ≤ 80%),A (0% ≤ substrate protein remaining % ≤ 80%)
"O=C1CCC(N2C(=O)c3ccc(CN4CCN(c5ccccn5)CC4)cc3C2=O)C(=O)N1 (stereo not drawn) [GT-06521, 2-(2,6-dioxopiperidin-3-yl)-5-((4-(pyridin-2-yl)piperazin-1-yl)methyl)isoindoline-1,3-dione]",B (80%< substrate protein remaining %≤ 100%),B (80%< substrate protein remaining %≤ 100%),B (80%< substrate protein remaining %≤ 100%),A (0% ≤ substrate protein remaining % ≤ 80%),B (80%< substrate protein remaining %≤ 100%),B (80%< substrate protein remaining %≤ 100%)
"Cc1cccc(N2CCN(Cc3ccc4c(c3)C(=O)N(C3CCC(=O)NC3=O)C4=O)CC2)n1 (stereo not drawn) [GT-06522, 2-(2,6-dioxopiperidin-3-yl)-5-((4-(6-methylpyridin-2-yl)piperazin-1-yl)methyl)isoindoline-1,3-dione]",B (80%< substrate protein remaining %≤ 100%),B (80%< substrate protein remaining %≤ 100%),B (80%< substrate protein remaining %≤ 100%),A (0% ≤ substrate protein remaining % ≤ 80%),B (80%< substrate protein remaining %≤ 100%),B (80%< substrate protein remaining %≤ 100%)
"O=C1CCC(N2C(=O)c3ccc(CN4CCN(c5cccc(Cl)n5)CC4)cc3C2=O)C(=O)N1 (stereo not drawn) [GT-06523, 5-((4-(6-chloropyridin-2-yl)piperazin-1-yl)methyl)-2-(2,6-dioxopiperidin-3-yl)isoindoline-1,3-dione]",A (0% ≤ substrate protein remaining % ≤ 80%),B (80%< substrate protein remaining %≤ 100%),B (80%< substrate protein remaining %≤ 100%),A (0% ≤ substrate protein remaining % ≤ 80%),B (80%< substrate protein remaining %≤ 100%),B (80%< substrate protein remaining %≤ 100%)
